From article PMC3622158 (Photochemistry and photobiology, 2013)

Assays:
red blood cells (RBCs) [1] = assay: Fluorescence and bright field microscopy of RBCs and ghosts; type: cell-based; details: Figure 2A; for association with RBCs prior to irradiation (fluorescence distribution): RBCs incubated with compound, fluorescence microscopy; for morphology of RBCs incubated with compound before irradiation: bright field microscopy
[2] = in aqueous solution; standards of the RNO assay; cited from earlier work
red blood cells (RBCs) [3] = assay: Photohemolysis assay of fluorescently labeled CPPs; type: cell-based; details: singlet oxygen quencher/inhibitor added to TMR-TAT and RBCs; Figure 1B
red blood cells (RBCs) [4] = tested on: red blood cells (RBCs)

| Molecule | association with RBCs prior to irradiation (fluorescence distribution) (red blood cells (RBCs) [1]) | morphology of RBCs incubated with compound before irradiation (red blood cells (RBCs) [1]) | singlet oxygen quantum yield [2] | effect on TMR-TAT mediated photohemolysis (red blood cells (RBCs) [3]) | other results |
| --- | --- | --- | --- | --- | --- |
| CC1=C(CCC(=O)O)c2cc3[nH]c(cc4nc(cc5[nH]c(cc1n2)c(C)c5C(C)O)C(C)=C4C(C)O)c(C)c3CCC(=O)O (stereo not shown) [HP, hematoporphyrin] | strong fluorescence signals were present on the surface of the cells | formed echinocytes | – | – | – |
| O=C1OC2(c3cc(I)c(O)c(I)c3Oc3c2cc(I)c(O)c3I)c2c(Cl)c(Cl)c(Cl)c(Cl)c21 [RB, Rose Bengal] | strong fluorescence signals were present on the surface of the cells | formed echinocytes | 0.76 | – | – |
| CC(/C=C/C=C(\C)C(=O)O)=C\C=C\C=C(C)\C=C\C=C(/C)C(=O)O [crocetin] | – | – | – | significant decrease in photohemolytic activity | – |
| O=C1OC2(c3ccccc31)c1cc(Br)c(O)c(Br)c1Oc1c2cc(Br)c(O)c1Br [eosin Y] | – | – | 0.57 | – | – |
| CC(=O)Oc1c(C)c(C)c2c(c1C)CCC(C)(CCC[C@H](C)CCC[C@H](C)CCCC(C)C)O2 (stereo partly drawn) [tocopherol, α-tocopheryl acetate] | – | – | – | significant decrease in photohemolytic activity | – |
| GRRRRRRRRR-NH2 [R9] | – | – | – | – | lysis with RB and peptide co-incubated (red blood cells (RBCs) [4]; RB and R9 co-incubated during irradiation, same conditions, data not shown): 93±3%; lytic effect of peptides alone (red blood cells (RBCs) [4]; in the dark or when cells were irradiated without RB present): not lytic by themselves |
